Earlier results as cited in patent US12257323B2, “Modified wound dressings” (CONVATEC TECHNOLOGIES INC., priority 2016, dated 2025).

Key:
Settings in all cases: cited from earlier work
MMP-8 = MMP-8 (Homo sapiens, UniProt P22894)
MMP-1 = target: T1, MMP-1 (Homo sapiens, UniProt P03956)
T1 sequence (P03956 100-469): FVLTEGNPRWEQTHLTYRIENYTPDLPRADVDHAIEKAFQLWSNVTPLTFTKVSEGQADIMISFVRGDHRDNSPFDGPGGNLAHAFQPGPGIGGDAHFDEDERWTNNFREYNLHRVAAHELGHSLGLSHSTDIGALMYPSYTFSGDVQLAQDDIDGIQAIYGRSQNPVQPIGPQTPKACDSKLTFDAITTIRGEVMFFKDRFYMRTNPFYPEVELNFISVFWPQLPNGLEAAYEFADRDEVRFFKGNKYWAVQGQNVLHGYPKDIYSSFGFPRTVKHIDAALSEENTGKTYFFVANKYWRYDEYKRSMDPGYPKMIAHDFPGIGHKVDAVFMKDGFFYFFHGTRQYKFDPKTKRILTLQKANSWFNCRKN

MMP-7 = target: T2, MMP-7 (Homo sapiens, UniProt P09237)
T2 sequence (P09237 95-267): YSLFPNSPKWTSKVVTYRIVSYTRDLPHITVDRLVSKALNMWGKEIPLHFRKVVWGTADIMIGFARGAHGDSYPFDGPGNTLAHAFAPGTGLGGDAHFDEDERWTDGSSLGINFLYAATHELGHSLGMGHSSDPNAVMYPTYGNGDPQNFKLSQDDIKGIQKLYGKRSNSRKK

MMP-3 = MMP-3 (Homo sapiens, UniProt P08254)
MMP-9 = MMP-9 (Homo sapiens, UniProt P14780)
MMP-2 = target: T3, MMP-2 (Homo sapiens, UniProt P08253)
T3 sequence (P08253 110-660): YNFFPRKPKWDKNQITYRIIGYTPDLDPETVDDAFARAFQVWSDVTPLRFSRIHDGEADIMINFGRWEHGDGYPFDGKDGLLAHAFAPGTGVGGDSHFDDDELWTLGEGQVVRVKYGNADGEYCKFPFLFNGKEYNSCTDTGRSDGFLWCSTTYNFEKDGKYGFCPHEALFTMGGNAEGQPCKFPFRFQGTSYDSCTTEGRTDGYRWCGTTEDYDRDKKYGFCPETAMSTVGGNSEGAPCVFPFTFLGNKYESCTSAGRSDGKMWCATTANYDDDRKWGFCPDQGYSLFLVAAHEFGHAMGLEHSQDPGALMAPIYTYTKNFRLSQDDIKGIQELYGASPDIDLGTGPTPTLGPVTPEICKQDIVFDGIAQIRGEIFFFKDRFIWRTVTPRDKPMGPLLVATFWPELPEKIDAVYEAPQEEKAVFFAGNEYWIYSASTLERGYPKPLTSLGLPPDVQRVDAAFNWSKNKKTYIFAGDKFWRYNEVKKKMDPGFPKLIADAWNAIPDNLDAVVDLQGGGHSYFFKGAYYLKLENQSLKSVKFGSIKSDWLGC

MMP-9, sequence (P14780 94-707): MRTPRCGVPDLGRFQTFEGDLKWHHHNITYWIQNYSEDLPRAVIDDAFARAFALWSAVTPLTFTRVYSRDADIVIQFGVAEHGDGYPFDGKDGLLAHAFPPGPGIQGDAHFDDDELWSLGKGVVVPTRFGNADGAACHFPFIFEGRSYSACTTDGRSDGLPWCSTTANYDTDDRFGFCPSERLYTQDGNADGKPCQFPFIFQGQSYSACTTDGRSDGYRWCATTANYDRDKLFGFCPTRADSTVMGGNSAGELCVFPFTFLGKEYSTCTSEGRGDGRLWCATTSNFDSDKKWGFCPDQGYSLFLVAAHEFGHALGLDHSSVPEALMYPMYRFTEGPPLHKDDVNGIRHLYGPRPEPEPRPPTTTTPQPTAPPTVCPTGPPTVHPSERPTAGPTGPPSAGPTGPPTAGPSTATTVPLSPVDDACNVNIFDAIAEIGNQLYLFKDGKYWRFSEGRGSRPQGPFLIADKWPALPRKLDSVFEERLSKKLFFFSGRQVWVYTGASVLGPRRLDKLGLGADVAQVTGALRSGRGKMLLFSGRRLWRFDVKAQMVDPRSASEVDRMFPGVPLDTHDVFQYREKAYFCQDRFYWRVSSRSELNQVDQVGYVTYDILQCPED
MMP-3, sequence (P08254 100-477): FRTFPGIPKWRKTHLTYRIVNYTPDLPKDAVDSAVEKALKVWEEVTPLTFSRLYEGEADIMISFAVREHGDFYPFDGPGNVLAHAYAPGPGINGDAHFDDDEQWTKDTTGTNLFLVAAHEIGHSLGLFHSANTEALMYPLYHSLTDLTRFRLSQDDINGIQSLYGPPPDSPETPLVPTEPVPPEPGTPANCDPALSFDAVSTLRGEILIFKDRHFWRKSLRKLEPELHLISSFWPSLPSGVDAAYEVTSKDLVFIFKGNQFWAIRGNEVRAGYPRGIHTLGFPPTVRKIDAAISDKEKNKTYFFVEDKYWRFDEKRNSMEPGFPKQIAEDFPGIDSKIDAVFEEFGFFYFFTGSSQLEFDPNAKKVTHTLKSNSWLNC
MMP-8, sequence (P22894 101-467): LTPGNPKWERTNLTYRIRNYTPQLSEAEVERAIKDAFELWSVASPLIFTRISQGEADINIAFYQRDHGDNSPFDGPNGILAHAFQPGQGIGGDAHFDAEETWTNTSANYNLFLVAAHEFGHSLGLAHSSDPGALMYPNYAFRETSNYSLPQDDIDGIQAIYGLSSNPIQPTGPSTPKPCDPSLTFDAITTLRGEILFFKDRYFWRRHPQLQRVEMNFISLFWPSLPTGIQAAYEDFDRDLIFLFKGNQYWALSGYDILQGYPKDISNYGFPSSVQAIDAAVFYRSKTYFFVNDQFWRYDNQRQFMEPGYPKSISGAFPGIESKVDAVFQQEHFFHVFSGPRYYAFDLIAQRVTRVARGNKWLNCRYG

Row | Substance | Relative rate MMP-8 (MMP-8) | Relative rate MMP-1 (MMP-1) | Relative rate MMP-7 (MMP-7) | Relative rate MMP-3 (MMP-3) | Relative rate MMP-9 (MMP-9) | Relative rate MMP-2 (MMP-2)
1 | GIy-Pro-Gln-Gly4Ile-Arg-Gly-Gln | 170 | 180 | 270 | 250 | 200 | 180
2 | Gly-Ala-Gln-Gly#Ile-Ala-Gly-Gln (GAQGIAGQ; printed: Gly-Ala-Gln-Gly; printed: Ile-Ala-Gly-Gln) | 23 | 50 | – | 62 | 9.4 | 22
3 | Gly-Asn-Gln-Gly#Ile-Ala-Gly-Gln (GNQGIAGQ; printed: Gly-Asn-Gln-Gly; printed: Ile-Ala-Gly-Gln) | 45 | 17 | 25 | 68 | <5.0 | 60
4 | Gly-Pro-Asp-Gly#Ile-Ala-Gly-Gln (GPDGIAGQ; printed: Gly-Pro-Asp-Gly; printed: Ile-Ala-Gly-Gln) | 44 | 30 | 7.0 | 89 | 10 | 11
5 | Gly-Pro-Gln-Ala#Ile-Ala-Gly-Gln | 320 | 600 | 530 | 300 | 110 | 96
6 | Gly-Pro-Gln-Gln#Ile-Ala-Gly-Gln | 150 | 140 | 180 | 140 | 13 | 25
7 | Gly-Pro-Gln-Glu#Ile-Ala-Gly-Gln | 330 | 28 | 170 | 190 | 29 | 15
8 | Gly-Pro-Gln-Glv#Met-Ala-Gly-Gln | 84 | 110 | 89 | 60 | 170 | 230
9 | Gly-Pro-Gln-Gly#Arg-Ala-Gly-Gln | <0.5 | <0.5 | <5.0 | <4.9 | <5.0 | <5.0
10 | Gly-Pro-Gln-Gly#Gln-Ala-Gly-Gln | 10 | 28 | <5.0 | 38 | 20 | 34
11 | Gly-Pro-Gln-Gly#Glu-Ala-Gly-Gln | <0.5 | <0.5 | 8.0 | <0.5 | <5.0 | <5.0
12 | Gly-Pro-Gln-Gly#Ile-Ala-Ala-Gln | 120 | 220 | 300 | 280 | 140 | 180
13 | Gly-Pro-Gln-Gly#Ile-Ala-Arg-Gln | 34 | 55 | 220 | 490 | 45 | 35
14 | Gly-Pro-Gln-Gly#Ile-Ala-Gly His | 145 | 91 | 87 | 110 | 120 | 150
15 | Gly-Pro-Gln-Gly#Ile-Ala-Gly-Ala | 110 | 86 | 91 | 130 | 110 | 85
16 | Gly-Pro-Gln-Gly#Ile-Ala-Gly-Gln | 100 | 100 | 100 | 100 | 100 | 100
17 | Gly-Pro-Gln-Gly#Ile-Ala-Gly-Thr | 145 | 160 | 100 | 72 | 160 | 59
18 | Gly-Pro-Gln-Gly#Ile-Ala-Met-Gln | 34 | 130 | 450 | 810 | 35 | 40
19 | Gly-Pro-Gln-Gly#Ile-Ala-Ser-Gln | 58 | 91 | 150 | 230 | 130 | 320
20 | Gly-Pro-Gln-Gly#Ile-Ala-Val-Gln | 57 | 100 | 170 | 170 | 49 | 26
21 | Gly-Pro-Gln-Gly#Ile-Glu-Gly-Gln | 59 | 35 | 86 | 58 | 130 | 85
22 | Gly-Pro-Gln-Gly#Ile-Hyp-Gly-Gln | 1.5 | 7.3 | 8.0 | 42 | 11 | 32
23 | Gly-Pro-Gln-Gly#Ile-Leu-Gly-Gln | 400 | 430 | 250 | 280 | 240 | 400
24 | Gly-Pro-Gln-Gly#Ile-Phe-Gly-Gln | 510 | 369 | 140 | 130 | 390 | 380
25 | Gly-Pro-Gln-Gly#Ile-Trp-Gly-Gln | 930 | 840 | 330 | 280 | 140 | 310
26 | Gly-Pro-Gln-Gly#Leu-Ala-Gly-Gln | 180 | 130 | 300 | 110 | 80 | 88
27 | Gly-Pro-Gln-Gly#Phe-Ala-Gly-Gln | 46 | 20 | 74 | 140 | 24 | 55
28 | Gly-Pro-Gln-Gly#Pro-Ala-Gly-Gln | <0.5 | <0.5 | <5.0 | <0.5 | <5.0 | <5.0
29 | Gly-Pro-Gln-His#Ile-Ala-Gly-Gln | 50 | 190 | – | 87 | 44 | 65
